Laboratory results as given in ChEMBL document CHEMBL4507291 (2021).

How the values were obtained:
[1] = biological target: Tyrosine-protein kinase ABL2 (Homo sapiens) (UniProt P42684); assay: ABL2 (Arg) Kinase screen; conditions: Compound concentration 1.0 uM
[2] = biological target: CDK9/Cyclin K (Homo sapiens) (UniProt P50750+O75909); assay: CDK9/cyclin K Kinase screen; assay type: protein-complex assay; conditions: Compound concentration 1.0 uM
[3] = biological target: CDK9/cyclin T1 (Homo sapiens) (UniProt O60563+P50750); assay: CDK9/cyclin T1 Kinase screen; assay type: protein-complex assay; conditions: Compound concentration 1.0 uM
[4] = biological target: Dual specificity protein kinase CLK1 (Homo sapiens) (UniProt P49759); assay: CLK1 Kinase screen; conditions: Compound concentration 1.0 uM
[5] = biological target: Dual specificity protein kinase CLK2 (Homo sapiens) (UniProt P49760); assay: CLK2 Kinase screen; conditions: Compound concentration 1.0 uM
[6] = biological target: Tyrosine-protein kinase Fgr (Homo sapiens) (UniProt P09769); assay: FGR Kinase screen; conditions: Compound concentration 1.0 uM
[7] = biological target: Tyrosine-protein kinase Fyn (Homo sapiens) (UniProt P06241); assay: FYN Kinase screen; conditions: Compound concentration 1.0 uM
[8] = biological target: MAP kinase-interacting serine/threonine-protein kinase 2 (Homo sapiens) (UniProt Q9HBH9); assay: MKNK2 (MNK2) Kinase screen; conditions: Compound concentration 1.0 uM
[9] = biological target: T1, Serine/threonine-protein kinase D3 (Homo sapiens) (UniProt O94806); assay: PRKCN (PKD3) Kinase screen; conditions: Compound concentration 1.0 uM
T1 sequence (whole entry): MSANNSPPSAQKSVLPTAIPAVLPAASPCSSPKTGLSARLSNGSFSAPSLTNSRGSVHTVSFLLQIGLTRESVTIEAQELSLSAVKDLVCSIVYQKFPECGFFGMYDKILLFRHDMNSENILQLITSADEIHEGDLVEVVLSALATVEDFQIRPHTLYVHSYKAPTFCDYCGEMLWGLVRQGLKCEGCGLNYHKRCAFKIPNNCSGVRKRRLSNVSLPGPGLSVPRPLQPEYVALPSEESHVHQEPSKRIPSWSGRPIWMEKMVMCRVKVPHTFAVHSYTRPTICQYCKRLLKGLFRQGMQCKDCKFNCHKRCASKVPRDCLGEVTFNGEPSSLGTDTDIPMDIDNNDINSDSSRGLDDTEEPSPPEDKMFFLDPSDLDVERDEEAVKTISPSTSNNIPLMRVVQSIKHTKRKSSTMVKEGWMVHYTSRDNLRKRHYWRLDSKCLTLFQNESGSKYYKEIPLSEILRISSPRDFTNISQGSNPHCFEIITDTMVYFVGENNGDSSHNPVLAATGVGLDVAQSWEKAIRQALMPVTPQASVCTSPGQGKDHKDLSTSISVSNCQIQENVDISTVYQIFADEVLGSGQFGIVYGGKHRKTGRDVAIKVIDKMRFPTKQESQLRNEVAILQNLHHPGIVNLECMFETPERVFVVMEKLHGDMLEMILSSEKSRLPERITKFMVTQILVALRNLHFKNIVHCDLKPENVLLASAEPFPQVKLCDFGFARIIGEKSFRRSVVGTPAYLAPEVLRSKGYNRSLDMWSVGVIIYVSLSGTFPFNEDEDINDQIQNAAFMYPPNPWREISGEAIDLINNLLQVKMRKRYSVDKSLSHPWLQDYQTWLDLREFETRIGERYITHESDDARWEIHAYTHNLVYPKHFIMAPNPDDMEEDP

[10] = biological target: T2, cAMP-dependent protein kinase catalytic subunit PRKX (Homo sapiens) (UniProt P51817); assay: PRKX Kinase screen; conditions: Compound concentration 1.0 uM
T2 sequence (whole entry): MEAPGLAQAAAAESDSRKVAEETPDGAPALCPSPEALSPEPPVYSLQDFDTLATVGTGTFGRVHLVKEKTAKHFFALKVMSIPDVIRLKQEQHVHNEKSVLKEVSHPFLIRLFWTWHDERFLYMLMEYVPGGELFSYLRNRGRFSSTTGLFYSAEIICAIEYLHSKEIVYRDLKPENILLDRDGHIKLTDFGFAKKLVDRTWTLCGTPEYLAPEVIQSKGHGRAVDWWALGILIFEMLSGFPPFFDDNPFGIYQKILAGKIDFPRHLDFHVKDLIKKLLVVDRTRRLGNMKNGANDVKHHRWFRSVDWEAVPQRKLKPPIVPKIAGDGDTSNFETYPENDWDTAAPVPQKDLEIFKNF

[11] = biological target: Serine/threonine-protein kinase 24 (Homo sapiens) (UniProt Q9Y6E0); assay: STK24 (MST3) Kinase screen; conditions: Compound concentration 1.0 uM
[12] = biological target: T3, Tyrosine-protein kinase receptor TYRO3 (Homo sapiens) (UniProt Q06418); assay: TYRO3 (RSE) Kinase screen; conditions: Compound concentration 1.0 uM
T3 sequence (whole entry): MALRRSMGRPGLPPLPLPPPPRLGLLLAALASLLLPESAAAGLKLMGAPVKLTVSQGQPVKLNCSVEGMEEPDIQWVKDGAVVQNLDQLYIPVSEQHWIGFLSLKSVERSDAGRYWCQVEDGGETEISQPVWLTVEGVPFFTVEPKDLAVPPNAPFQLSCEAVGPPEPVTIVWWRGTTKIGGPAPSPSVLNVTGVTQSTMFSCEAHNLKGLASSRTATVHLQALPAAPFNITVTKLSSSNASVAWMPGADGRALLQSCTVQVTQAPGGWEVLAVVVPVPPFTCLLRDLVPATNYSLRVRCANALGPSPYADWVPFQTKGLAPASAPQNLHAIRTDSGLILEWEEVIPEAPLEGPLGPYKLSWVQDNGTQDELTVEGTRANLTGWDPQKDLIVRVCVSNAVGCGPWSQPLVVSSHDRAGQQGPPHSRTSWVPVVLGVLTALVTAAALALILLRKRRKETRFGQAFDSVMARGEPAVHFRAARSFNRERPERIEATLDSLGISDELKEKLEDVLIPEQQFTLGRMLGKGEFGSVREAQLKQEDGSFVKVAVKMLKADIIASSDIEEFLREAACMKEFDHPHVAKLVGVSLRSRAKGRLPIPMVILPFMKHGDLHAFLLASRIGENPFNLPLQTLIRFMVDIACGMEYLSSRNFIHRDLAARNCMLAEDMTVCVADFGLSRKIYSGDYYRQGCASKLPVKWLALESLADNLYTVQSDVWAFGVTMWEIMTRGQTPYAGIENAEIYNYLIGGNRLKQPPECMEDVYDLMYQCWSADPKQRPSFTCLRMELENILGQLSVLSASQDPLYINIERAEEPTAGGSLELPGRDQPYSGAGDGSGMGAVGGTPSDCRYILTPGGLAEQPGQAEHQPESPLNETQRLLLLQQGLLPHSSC

[13] = biological target: Vasopressin V2 receptor (Homo sapiens) (UniProt P30518); assay: Inhibition of Vasopressin V2 at 10 µM in the Eurofins-Panlabs radioligand binding assay (Eurofins_assay_287610); parameters: ligand concentration 4 nM; conditions: Compound concentration 10.0 uM
[14] = biological target: Type-1 angiotensin II receptor (Homo sapiens) (UniProt P30556); conditions: Compound concentration 10.0 uM

Measured: inhibition

Chain of Tyrosine-protein kinase Fgr (Homo sapiens) (P09769 2-529 limits assumed): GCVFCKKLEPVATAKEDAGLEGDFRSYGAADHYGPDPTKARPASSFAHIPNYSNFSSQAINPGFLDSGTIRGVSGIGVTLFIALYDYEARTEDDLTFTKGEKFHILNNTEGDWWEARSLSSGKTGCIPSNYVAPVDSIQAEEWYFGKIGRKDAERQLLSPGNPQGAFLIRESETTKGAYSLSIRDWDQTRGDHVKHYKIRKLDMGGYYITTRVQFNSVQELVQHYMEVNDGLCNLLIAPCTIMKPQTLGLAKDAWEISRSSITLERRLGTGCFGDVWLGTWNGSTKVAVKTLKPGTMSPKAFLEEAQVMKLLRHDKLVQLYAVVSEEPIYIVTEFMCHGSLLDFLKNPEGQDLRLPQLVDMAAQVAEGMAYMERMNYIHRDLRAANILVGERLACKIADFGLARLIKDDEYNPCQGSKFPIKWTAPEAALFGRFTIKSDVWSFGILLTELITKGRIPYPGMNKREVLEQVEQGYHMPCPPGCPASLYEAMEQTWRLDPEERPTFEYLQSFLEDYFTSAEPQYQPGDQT
Chain of Type-1 angiotensin II receptor (Homo sapiens) (P30556 whole entry): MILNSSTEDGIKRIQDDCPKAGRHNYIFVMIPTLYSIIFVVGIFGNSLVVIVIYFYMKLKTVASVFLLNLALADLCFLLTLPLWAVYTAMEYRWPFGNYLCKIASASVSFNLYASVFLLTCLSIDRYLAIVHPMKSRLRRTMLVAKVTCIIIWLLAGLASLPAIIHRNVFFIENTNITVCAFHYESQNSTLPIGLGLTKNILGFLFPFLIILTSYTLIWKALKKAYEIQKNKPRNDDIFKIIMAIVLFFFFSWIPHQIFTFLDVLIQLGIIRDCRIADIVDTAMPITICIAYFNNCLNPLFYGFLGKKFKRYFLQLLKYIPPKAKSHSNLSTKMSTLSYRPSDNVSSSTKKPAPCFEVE
Chain of MAP kinase-interacting serine/threonine-protein kinase 2 (Homo sapiens) (Q9HBH9 whole entry, looked up): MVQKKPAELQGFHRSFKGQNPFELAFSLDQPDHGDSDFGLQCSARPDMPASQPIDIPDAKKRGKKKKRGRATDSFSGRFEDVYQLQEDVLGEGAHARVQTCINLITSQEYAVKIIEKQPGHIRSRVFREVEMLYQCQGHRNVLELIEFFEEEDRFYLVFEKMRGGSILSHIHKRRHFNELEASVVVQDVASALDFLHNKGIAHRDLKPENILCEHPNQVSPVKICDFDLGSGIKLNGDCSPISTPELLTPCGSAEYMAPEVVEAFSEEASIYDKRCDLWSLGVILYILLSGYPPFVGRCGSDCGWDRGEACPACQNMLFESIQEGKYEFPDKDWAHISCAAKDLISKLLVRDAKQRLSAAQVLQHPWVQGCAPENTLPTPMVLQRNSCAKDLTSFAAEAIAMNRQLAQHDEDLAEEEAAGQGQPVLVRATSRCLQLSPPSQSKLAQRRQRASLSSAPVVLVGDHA
Chain of Dual specificity protein kinase CLK1 (Homo sapiens) (P49759 whole entry, looked up): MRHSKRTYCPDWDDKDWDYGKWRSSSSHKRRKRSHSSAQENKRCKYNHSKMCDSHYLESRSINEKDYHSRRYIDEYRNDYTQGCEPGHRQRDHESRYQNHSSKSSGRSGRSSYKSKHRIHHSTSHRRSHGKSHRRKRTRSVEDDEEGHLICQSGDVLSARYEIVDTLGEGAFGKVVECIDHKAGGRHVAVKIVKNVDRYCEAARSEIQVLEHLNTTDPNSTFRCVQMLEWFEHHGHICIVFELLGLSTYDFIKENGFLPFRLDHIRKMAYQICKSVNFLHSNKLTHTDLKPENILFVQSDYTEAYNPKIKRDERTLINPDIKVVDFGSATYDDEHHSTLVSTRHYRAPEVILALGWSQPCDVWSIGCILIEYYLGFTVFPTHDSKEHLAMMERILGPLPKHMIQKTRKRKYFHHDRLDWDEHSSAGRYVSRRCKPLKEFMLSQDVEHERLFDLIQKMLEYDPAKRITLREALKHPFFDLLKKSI
Chain of Dual specificity protein kinase CLK2 (Homo sapiens) (P49760 whole entry, looked up): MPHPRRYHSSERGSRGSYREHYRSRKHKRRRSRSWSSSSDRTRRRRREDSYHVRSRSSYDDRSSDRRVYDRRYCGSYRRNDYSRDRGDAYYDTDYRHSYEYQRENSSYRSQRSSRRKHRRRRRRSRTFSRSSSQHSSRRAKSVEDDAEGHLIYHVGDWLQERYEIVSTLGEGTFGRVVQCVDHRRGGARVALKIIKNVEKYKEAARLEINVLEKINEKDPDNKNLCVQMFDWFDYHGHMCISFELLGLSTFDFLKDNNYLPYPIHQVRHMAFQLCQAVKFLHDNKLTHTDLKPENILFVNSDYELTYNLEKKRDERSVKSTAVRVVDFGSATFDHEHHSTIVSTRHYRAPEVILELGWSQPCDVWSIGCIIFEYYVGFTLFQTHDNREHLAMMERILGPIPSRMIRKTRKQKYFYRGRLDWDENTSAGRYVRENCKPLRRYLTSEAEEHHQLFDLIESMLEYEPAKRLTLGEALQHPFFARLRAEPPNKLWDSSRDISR
Chain of Tyrosine-protein kinase ABL2 (Homo sapiens) (P42684 whole entry): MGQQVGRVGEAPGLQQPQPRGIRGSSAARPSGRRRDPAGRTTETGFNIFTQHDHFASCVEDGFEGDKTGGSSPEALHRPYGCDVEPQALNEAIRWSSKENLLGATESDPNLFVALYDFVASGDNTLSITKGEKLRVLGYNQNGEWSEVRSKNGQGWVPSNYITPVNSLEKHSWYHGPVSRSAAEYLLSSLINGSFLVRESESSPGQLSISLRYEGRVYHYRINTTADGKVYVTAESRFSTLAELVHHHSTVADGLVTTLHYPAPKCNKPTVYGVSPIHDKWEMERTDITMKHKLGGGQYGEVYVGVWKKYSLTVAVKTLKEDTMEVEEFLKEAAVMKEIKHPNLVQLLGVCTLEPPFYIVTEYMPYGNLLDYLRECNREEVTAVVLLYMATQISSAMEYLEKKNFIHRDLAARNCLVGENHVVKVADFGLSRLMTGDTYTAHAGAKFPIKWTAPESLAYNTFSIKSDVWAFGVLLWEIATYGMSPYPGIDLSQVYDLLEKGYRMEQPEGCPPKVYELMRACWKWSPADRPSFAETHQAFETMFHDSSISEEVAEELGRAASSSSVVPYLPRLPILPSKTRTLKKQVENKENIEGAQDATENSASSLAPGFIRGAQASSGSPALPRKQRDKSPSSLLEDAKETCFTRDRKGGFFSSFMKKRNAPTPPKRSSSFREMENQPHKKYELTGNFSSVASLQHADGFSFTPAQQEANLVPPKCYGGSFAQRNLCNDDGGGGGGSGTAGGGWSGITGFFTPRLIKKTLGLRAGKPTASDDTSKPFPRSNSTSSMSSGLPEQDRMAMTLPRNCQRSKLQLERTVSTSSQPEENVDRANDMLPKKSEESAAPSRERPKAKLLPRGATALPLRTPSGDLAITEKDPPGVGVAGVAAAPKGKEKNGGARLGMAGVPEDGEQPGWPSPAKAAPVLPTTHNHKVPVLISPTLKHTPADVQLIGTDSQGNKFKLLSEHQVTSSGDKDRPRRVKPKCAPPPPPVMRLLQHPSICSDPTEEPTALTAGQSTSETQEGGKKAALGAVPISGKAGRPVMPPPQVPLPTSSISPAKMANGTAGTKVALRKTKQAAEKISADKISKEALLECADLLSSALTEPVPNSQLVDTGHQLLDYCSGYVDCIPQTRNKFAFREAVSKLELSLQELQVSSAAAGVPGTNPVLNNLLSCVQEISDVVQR
Chain of Tyrosine-protein kinase Fyn (Homo sapiens) (P06241 2-537 limits assumed): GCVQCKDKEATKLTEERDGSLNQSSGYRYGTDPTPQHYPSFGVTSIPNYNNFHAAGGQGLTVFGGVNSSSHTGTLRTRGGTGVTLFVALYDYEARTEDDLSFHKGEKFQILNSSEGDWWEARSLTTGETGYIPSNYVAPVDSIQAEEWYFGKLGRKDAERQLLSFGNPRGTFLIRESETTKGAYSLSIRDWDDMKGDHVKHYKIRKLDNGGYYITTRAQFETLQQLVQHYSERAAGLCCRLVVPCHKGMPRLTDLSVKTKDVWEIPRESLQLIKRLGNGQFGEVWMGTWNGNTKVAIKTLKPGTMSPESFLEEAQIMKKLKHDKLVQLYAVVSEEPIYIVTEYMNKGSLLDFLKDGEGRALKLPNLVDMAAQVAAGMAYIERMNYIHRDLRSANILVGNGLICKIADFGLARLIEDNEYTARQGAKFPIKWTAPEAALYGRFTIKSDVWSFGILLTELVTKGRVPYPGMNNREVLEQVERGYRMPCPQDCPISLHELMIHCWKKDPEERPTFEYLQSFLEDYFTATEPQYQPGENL
Chain of Serine/threonine-protein kinase 24 (Homo sapiens) (Q9Y6E0 whole entry, looked up): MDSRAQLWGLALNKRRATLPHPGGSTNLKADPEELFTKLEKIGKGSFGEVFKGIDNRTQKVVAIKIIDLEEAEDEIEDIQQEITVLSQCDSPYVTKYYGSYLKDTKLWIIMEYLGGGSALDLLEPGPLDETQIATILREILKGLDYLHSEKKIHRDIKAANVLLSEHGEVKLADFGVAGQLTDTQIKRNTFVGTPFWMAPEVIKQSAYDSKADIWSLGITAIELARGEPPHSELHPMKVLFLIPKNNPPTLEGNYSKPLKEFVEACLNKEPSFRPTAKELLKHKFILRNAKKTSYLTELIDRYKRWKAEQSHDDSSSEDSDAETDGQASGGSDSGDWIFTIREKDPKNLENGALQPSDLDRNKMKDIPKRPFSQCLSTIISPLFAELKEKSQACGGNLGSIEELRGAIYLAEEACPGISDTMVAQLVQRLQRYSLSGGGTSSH
Chain of Vasopressin V2 receptor (Homo sapiens) (P30518 whole entry): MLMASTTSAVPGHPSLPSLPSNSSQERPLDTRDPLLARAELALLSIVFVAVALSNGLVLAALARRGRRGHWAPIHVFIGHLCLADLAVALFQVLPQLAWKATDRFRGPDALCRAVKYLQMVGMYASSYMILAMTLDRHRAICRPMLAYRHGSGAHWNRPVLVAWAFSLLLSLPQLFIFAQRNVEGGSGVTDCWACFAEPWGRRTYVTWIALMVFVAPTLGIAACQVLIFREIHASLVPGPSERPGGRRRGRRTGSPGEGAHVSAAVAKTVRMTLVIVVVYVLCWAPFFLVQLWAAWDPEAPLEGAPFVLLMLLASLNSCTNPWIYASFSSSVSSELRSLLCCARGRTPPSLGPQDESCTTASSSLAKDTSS

C[C@@H]1CN(c2cc(-c3n[nH]c4ccc(OC5(C)CC5)cc34)ncn2)C[C@H](C)O1 [MLi-2]
inactive: [1] 0.91% | [2] -2.24% | [3] 11.3% | [4] 15.7% | [5] 55% | [6] -2.24% | [7] 11.2% | [8] 9.35% | [9] 21.1% | [10] 1.54% | [11] 7.34% | [12] 6.06% | [13] 9% | [14] 8%
